{
  "source": "patent US10328053B2",
  "about": "(Gilead Sciences, Inc., priority 2016, dated 2019)",
  "assay": "Hepatic Stability Assay (in vitro half-life method)",
  "assay_type": "in vitro ADME",
  "set-up": "dose or concentration left out as unconfirmed",
  "details": "pooled cryopreserved hepatocytes, 37° C., 1×10^6 cells/mL, 0-6 hours, LC-MS/MS, 39.5 hours is the maximum detectable half life, read-out: t½ (converted)",
  "description": "Hepatic Stability Assay The metabolic stability of certain compounds disclosed herein was assessed in vitro in pooled cryopreserved hepatocytes using the in vitro half-life method. Incubations were at 37° C. and final concentrations in the incubations were 1×10^6 cells/mL and […] test concentration of the compound. Aliquots were sequentially removed after 0, 1, 3 and 6 hours and analyzed by LC-MS/MS. In vitro half-life was determined by measuring the rate of disappearance of the compound and then scaled to predicted hepatic clearance using the well-stirred model. […] As such, compounds having a value of 39.5 may have a half live that exceeds 39.5 hours.",
  "data": [
    {"smiles": "Cc1c(C(=O)C(=O)NC2(CO)CC(F)(F)C2)c2n(c1C(=O)Nc1ccc(F)c(Cl)c1)CCC2", "note": "[Example 117, N-(3-chloro-4-fluorophenyl)-7-(2-((3,3-difluoro-1-(hydroxymethyl)cyclobutyl)amino)-2-oxoacetyl)-6-methyl-2,3-dihydro-1H-pyrrolizine-5-carboxamide]", "values": [
      {"measurement": "half-life", "result": 10.5, "unit": "h"}
    ]},
    {"smiles": "CNC(=O)C1(NC(=O)C(=O)c2c(C)c(C(=O)Nc3ccc(F)c(Cl)c3)n3c2C[C@@H]2C[C@@H]23)CC(F)(F)C1", "note": "[Example 4, (1aS,6aS)—N-(3-chloro-4-fluorophenyl)-5-(2-((3,3-difluoro-1 (methylcarbamoyl)cyclobutyl)amino)-2-oxoacetyl)-4-methyl-1,1a,6,6a-tetrahydrocyclopropa[b]pyrrolizine-3-carboxamide]", "values": [
      {"measurement": "half-life", "result": 7.3, "unit": "h"}
    ]},
    {"smiles": "Cc1c(C(=O)C(=O)NC2(C(N)=O)CC(F)(F)C2)c2n(c1C(=O)Nc1ccc(F)c(Cl)c1)CCC2", "note": "[Example 120, 7-(2-((1-carbamoyl-3,3-difluorocyclobutyl)amino)-2-oxoacetyl)-N-(3-chloro-4-fluorophenyl)-6-methyl-2,3-dihydro-1H-pyrrolizine-5-carboxamide]", "values": [
      {"measurement": "half-life", "result": 13.5, "unit": "h"}
    ]},
    {"smiles": "Cc1c(C(=O)C(=O)N[C@H](C)C(F)(F)F)c2n(c1C(=O)Nc1ccc(F)c(Cl)c1)C(C)CC2", "note": "(mixture of isomers) [Example 20, N-(3-chloro-4-fluorophenyl)-3,6-dimethyl-7-(2-oxo-2-(((R)-1,1,1-trifluoropropan-2-yl)amino)acetyl)-2,3-dihydro-1H-pyrrolizine-5-carboxamide]", "values": [
      {"measurement": "half-life", "result": 14.3, "unit": "h"}
    ]},
    {"smiles": "Cc1c(C(=O)C(=O)NC2(c3c[nH]nn3)CC2)c2n(c1C(=O)Nc1cc(F)cc(Cl)c1)CCC2", "note": "[Example 101, 7-(2-((1-(1H-1,2,3-triazol-4-yl)cyclopropyl)amino)-2-oxoacetyl)-N-(3-chloro-5-fluorophenyl)-6-methyl-2,3-dihydro-1H-pyrrolizine-5-carboxamide]", "values": [
      {"measurement": "half-life", "result": 7, "unit": "h"}
    ]},
    {"smiles": "Cc1c(C(=O)C(=O)NC2(c3c[nH]nn3)CC2)c2n(c1C(=O)Nc1cc(Cl)c(F)cc1F)CCC2", "note": "[Example 91, 7-(2-((1-(1H-1,2,3-triazol-4-yl)cyclopropyl)amino)-2-oxoacetyl)-N-(5-chloro-2,4-difluorophenyl)-6-methyl-2,3-dihydro-1H-pyrrolizine-5-carboxamide]", "values": [
      {"measurement": "half-life", "result": 19.6, "unit": "h"}
    ]},
    {"smiles": "Cc1c(C(=O)C(=O)NC2(C(F)(F)F)COC2)c2n(c1C(=O)Nc1ccnc(C(F)F)c1)[C@@H]1C[C@@H]1C2", "note": "[Example 119, (1aR,6aR)—N-(2-(difluoromethyl)pyridin-4-yl)-4-methyl-5-(2-oxo-2-((3-(trifluoromethyl)oxetan-3-yl)amino)acetyl)-1,1a,6,6a-tetrahydrocyclopropa[b]pyrrolizine-3-carboxamide]", "values": [
      {"measurement": "half-life", "result": 11, "unit": "h"}
    ]},
    {"smiles": "Cc1c(C(=O)C(=O)NC2(c3cn(C)nn3)CC2)c2n(c1C(=O)Nc1ccc(F)c(Cl)c1)CCC2", "note": "[Example 98, N-(3-chloro-4-fluorophenyl)-6-methyl-7-(2-((1-(1-methyl-1H-1,2,3-triazol-4-yl)cyclopropyl)amino)-2-oxoacetyl)-2,3-dihydro-1H-pyrrolizine-5-carboxamide]", "values": [
      {"measurement": "half-life", "result": 14.8, "unit": "h"}
    ]},
    {"smiles": "Cc1nnc(C2(NC(=O)C(=O)c3c(C)c(C(=O)Nc4cc(F)c(F)c(F)c4)n4c3CCC4)CC2)o1", "note": "[Example 65, 6-methyl-7-(2-((1-(5-methyl-1,3,4-oxadiazol-2-yl)cyclopropyl)amino)-2-oxoacetyl)-N-(3,4,5-trifluorophenyl)-2,3-dihydro-1H-pyrrolizine-5-carboxamide]", "values": [
      {"measurement": "half-life", "result": 14.8, "unit": "h"}
    ]},
    {"smiles": "Cc1c(C(=O)C(=O)N[C@H](C)C(F)(F)F)c2n(c1C(=O)Nc1ccc(F)c(Cl)c1)CCC2", "note": "[Example 2, (R)—N-(3-chloro-4-fluorophenyl)-6-methyl-7-(2-oxo-2-((1,1,1-trifluoropropan-2-yl)amino)acetyl)-2,3-dihydro-1H-pyrrolizine-5-carboxamide]", "values": [
      {"measurement": "half-life", "result": 15, "unit": "h"}
    ]},
    {"smiles": "Cc1c(C(=O)C(=O)NC2(c3c[nH]nn3)CC2)c2n(c1C(=O)Nc1ccc(F)c(F)c1)[C@@H]1C[C@@H]1C2", "note": "[Example 81, (1aR,6aR)-5-(2-((1-(1H-1,2,3-triazol-4-yl)cyclopropyl)amino)-2-oxoacetyl)-N-(3,4-difluorophenyl)-4-methyl-1,1a,6,6a-tetrahydrocyclopropa[b]pyrrolizine-3-carboxamide]", "values": [
      {"measurement": "half-life", "result": 8, "unit": "h"}
    ]},
    {"smiles": "CNC(=O)C1(NC(=O)C(=O)c2c(C)c(C(=O)Nc3ccc(F)c(F)c3)n3c2C[C@H]2C[C@H]23)CC(F)(F)C1", "note": "[Example 96, (1aR,6aR)-5-(2-((3,3-difluoro-1-(methylcarbamoyl)cyclobutyl)amino)-2-oxoacetyl)-N-(3,4-difluorophenyl)-4-methyl-1,1a,6,6a-tetrahydrocyclopropa[b]pyrrolizine-3-carboxamide]", "values": [
      {"measurement": "half-life", "result": 22.6, "unit": "h"}
    ]},
    {"smiles": "Cc1c(C(=O)C(=O)NC2(c3c[nH]nn3)CC(F)(F)C2)c2n(c1C(=O)Nc1ccnc(C(F)F)c1)CCC2", "note": "[Example 55, 7-(2-((3,3-difluoro-1-(1H-1,2,3-triazol-4-yl)cyclobutyl)amino)-2-oxoacetyl)-N-(2-(difluoromethyl)pyridin-4-yl)-6-methyl-2,3-dihydro-1H-pyrrolizine-5-carboxamide]", "values": [
      {"measurement": "half-life", "result": 15.5, "unit": "h"}
    ]},
    {"smiles": "Cc1c(C(=O)C(=O)NC2(c3c[nH]nn3)CC(F)(F)C2)c2n(c1C(=O)Nc1ccnc(C(F)F)c1)[C@@H]1C[C@@H]1C2", "note": "[Example 78, (1aR,6aR)-5-(2-((3,3-difluoro-1-(1H-1,2,3-triazol-4-yl)cyclobutyl)amino)-2-oxoacetyl)-N-(2-(difluoromethyl)pyridin-4-yl)-4-methyl-1,1a,6,6a-tetrahydrocyclopropa[b]pyrrolizine-3-carboxamide]", "values": [
      {"measurement": "half-life", "result": 4.8, "unit": "h"}
    ]},
    {"smiles": "Cc1c(C(=O)C(=O)NC2(CO)CC(F)(F)C2)c2n(c1C(=O)Nc1ccc(F)c(F)c1)CCC2", "note": "[Example 118, 7-(2-((3,3-difluoro-1-(hydroxymethyl)cyclobutyl)amino)-2-oxoacetyl)-N-(3,4-difluorophenyl)-6-methyl-2,3-dihydro-1H-pyrrolizine-5-carboxamide]", "values": [
      {"measurement": "half-life", "result": 15.2, "unit": "h"}
    ]},
    {"smiles": "Cc1c(C(=O)C(=O)NC2(CN3CC4(COC4)C3)CC(F)(F)C2)c2n(c1C(=O)Nc1ccc(F)c(Cl)c1)CCC2", "note": "[Example 10, 7-(2-((1-((2-oxa-6-azaspiro[3.3]heptan-6-yl)methyl)-3,3-difluorocyclobutyl)amino)-2-oxoacetyl)-N-(3-chloro-4-fluorophenyl)-6-methyl-2,3-dihydro-1H-pyrrolizine-5-carboxamide]", "values": [
      {"measurement": "half-life", "result": 1, "unit": "h"}
    ]},
    {"smiles": "Cc1c(C(=O)C(=O)NC2(c3nnn(C)n3)CC2)c2n(c1C(=O)Nc1ccc(F)c(Cl)c1)CCC2", "note": "[Example 50, N-(3-chloro-4-fluorophenyl)-6-methyl-7-(2-((1-(2-methyl-2H-tetrazol-5-yl)cyclopropyl)amino)-2-oxoacetyl)-2,3-dihydro-1H-pyrrolizine-5-carboxamide]", "values": [
      {"measurement": "half-life", "result": 15.3, "unit": "h"}
    ]},
    {"smiles": "Cc1c(C(=O)C(=O)N[C@H](C)C(F)(F)F)c2n(c1C(=O)Nc1ccc(F)c(Cl)c1)C(C)(C)CC2", "note": "[Example 17, (R)—N-(3-chloro-4-fluorophenyl)-3,3,6-trimethyl-7-(2-oxo-2-((1,1,1-trifluoropropan-2-yl)amino)acetyl)-2,3-dihydro-1H-pyrrolizine-5-carboxamide]", "values": [
      {"measurement": "half-life", "result": 0.6, "unit": "h"}
    ]},
    {"smiles": "Cc1c(C(=O)C(=O)NC2(c3cnn[nH]3)CC2)c2n(c1C(=O)Nc1cc(Cl)ccc1F)CCC2", "note": "[Example 86, 7-(2-((1-(1H-1,2,3-triazol-5-yl)cyclopropyl)amino)-2-oxoacetyl)-N-(5-chloro-2-fluorophenyl)-6-methyl-2,3-dihydro-1H-pyrrolizine-5-carboxamide]", "values": [
      {"measurement": "half-life", "result": 9.4, "unit": "h"}
    ]},
    {"smiles": "Cc1c(C(=O)C(=O)NC2(C(=O)N(C)C)CC(F)(F)C2)c2n(c1C(=O)Nc1ccc(F)c(Cl)c1)CCC2", "note": "[Example 124, N-(3-chloro-4-fluorophenyl)-7-(2-((1-(dimethylcarbamoyl)-3,3-difluorocyclobutyl)amino)-2-oxoacetyl)-6-methyl-2,3-dihydro-1H-pyrrolizine-5-carboxamide]", "values": [
      {"measurement": "half-life", "result": 1, "unit": "h"}
    ]},
    {"smiles": "Cc1c(C(=O)C(=O)NC2(c3cnn[nH]3)CC2)c2n(c1C(=O)Nc1ccc(F)cc1)[C@@H]1C[C@@H]1C2", "note": "[Example 99, (1aR,6aR)-5-(2-((1-(1H-1,2,3-triazol-5-yl)cyclopropyl)amino)-2-oxoacetyl)-N-(4-fluorophenyl)-4-methyl-1,1a,6,6a-tetrahydrocyclopropa[b]pyrrolizine-3-carboxamide]", "values": [
      {"measurement": "half-life", "result": 9.6, "unit": "h"}
    ]},
    {"smiles": "Cc1c(C(=O)C(=O)NC2(c3nncs3)CC2)c2n(c1C(=O)Nc1ccc(F)c(C#N)c1)[C@@H]1C[C@@H]1C2", "note": "[Example 58, (1aR,6aR)-5-(2-((1-(1,3,4-thiadiazol-2-yl)cyclopropyl)amino)-2-oxoacetyl)-N-(3-cyano-4-fluorophenyl)-4-methyl-1,1a,6,6a-tetrahydrocyclopropa[b]pyrrolizine-3-carboxamide]", "values": [
      {"measurement": "half-life", "result": 38.5, "unit": "h"}
    ]},
    {"smiles": "Cc1nnc(C2(NC(=O)C(=O)c3c(C)c(C(=O)Nc4ccc(F)c(Cl)c4)n4c3CCC4)CC2)[nH]1", "note": "[Example 51, N-(3-chloro-4-fluorophenyl)-6-methyl-7-(2-((1-(5-methyl-4H-1,2,4-triazol-3-yl)cyclopropyl)amino)-2-oxoacetyl)-2,3-dihydro-1H-pyrrolizine-5-carboxamide]", "values": [
      {"measurement": "half-life", "result": 9.5, "unit": "h"}
    ]},
    {"smiles": "Cc1c(C(=O)C(=O)NC2(c3c[nH]nn3)CC2)c2n(c1C(=O)Nc1ccc(F)c(F)c1)CCC2", "note": "[Example 43, 7-(2-((1-(1H-1,2,3-triazol-4-yl)cyclopropyl)amino)-2-oxoacetyl)-N-(3,4-difluorophenyl)-6-methyl-2,3-dihydro-1H-pyrrolizine-5-carboxamide]", "values": [
      {"measurement": "half-life", "result": 16, "unit": "h"}
    ]},
    {"smiles": "Cc1c(C(=O)C(=O)NC2(C(F)(F)F)COC2)c2n(c1C(=O)Nc1ccnc(C(F)F)c1F)C[C@H](F)C2", "note": "[Example 150, (R)—N-(2-(difluoromethyl)-3-fluoropyridin-4-yl)-2-fluoro-6-methyl-7-(2-oxo-2-((3-(trifluoromethyl)oxetan-3-yl)amino)acetyl)-2,3-dihydro-1H-pyrrolizine-5-carboxamide]", "values": [
      {"measurement": "half-life", "result": 16.6, "unit": "h"}
    ]}
  ]
}
